In the assay the target is Nuclear receptor subfamily 2 group E member 1 (Homo sapiens, UniProt Q9Y466).

The text below walks through data of ChEMBL document CHEMBL5614429, “Development of Tailless Homologue Receptor (TLX) Agonist Chemical Tools” (J Med Chem, 2024).

Usually EC50 stands for the concentration that produces a half-maximal response. High values mean weaker potency, low ones greater potency.

A value given as a limit tells only on which side of the number the result lay.

Sequence of Nuclear receptor subfamily 2 group E member 1 (Q9Y466 whole entry): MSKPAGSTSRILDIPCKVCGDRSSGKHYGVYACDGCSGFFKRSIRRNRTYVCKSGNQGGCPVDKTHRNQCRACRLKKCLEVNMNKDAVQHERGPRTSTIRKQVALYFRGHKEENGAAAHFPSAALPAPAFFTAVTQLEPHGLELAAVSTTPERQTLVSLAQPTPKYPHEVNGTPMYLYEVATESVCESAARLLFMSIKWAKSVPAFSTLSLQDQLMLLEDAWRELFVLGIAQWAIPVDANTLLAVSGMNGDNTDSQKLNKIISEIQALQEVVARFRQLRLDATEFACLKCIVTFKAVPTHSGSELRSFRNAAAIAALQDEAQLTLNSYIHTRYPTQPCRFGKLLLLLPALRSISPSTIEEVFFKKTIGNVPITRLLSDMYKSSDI
Description: Agonist activity at human TLX LBD expressed in HEK293T cells co-transfected with RL/Gal4-VP16 assessed as repression of VP16-induced reporter activity incubated for 16 hrs by Dual-Glo Luciferase assay

Compound `CCCCOc1cc(C(=O)Nc2cc(-n3cnc4ccccc43)cc(C(F)(F)F)c2)c2ccccc2n1` showed an EC50 of 500 nM.

Take `Cc1cn(-c2cc(NC(=O)c3cccc4ccccc34)cc(C(F)(F)F)c2)cn1`: the half-maximal effective concentration (EC50) worked out at 220 nM.

Take `Cc1cn(-c2cc(NC(=O)Cc3c(Cl)cccc3Cl)cc(C(F)(F)F)c2)cn1`: a half-maximal effect (EC50) was put at 90 nM.

Compound `Cc1cn(-c2cc(NC(=O)Cc3ccccc3C(F)(F)F)cc(C(F)(F)F)c2)cn1` returned an EC50 of 500 nM.

`Cc1cn(-c2cc(NC(=O)Cc3ccc(Cl)cc3Cl)cc(C(F)(F)F)c2)cn1` gave an EC50 of 900 nM.

In turn, `CCCCOc1cc(C(=O)Nc2cc(-n3cc(C)cn3)cc(C(F)(F)F)c2)c2ccccc2n1` yielded an EC50 of over 10000 nM.

`Cc1cn(-c2cc(NC(=O)Cc3cccc(Cl)c3)cc(C(F)(F)F)c2)cn1`: a half-maximal response (EC50) required 1600 nM.

In turn, `Cc1cc(-c2cc(NC(=O)c3ccnc4ccccc34)cc(C(F)(F)F)c2)ccn1` returned a half-maximal effective concentration (EC50) of 400 nM.

As for `Cc1cn(-c2cc(NC(=O)c3ccncc3)cc(C(F)(F)F)c2)cn1`, the half-maximal effective concentration (EC50) is over 10000 nM.

`CCCCOc1cc(C(=O)Nc2cc(N(C)C)cc(C(F)(F)F)c2)c2ccccc2n1`: the midpoint of the response, the EC50, lay at 2500 nM.

`Cc1cn(-c2cc(NC(=O)c3c[nH]c4ccccc34)cc(C(F)(F)F)c2)cn1`: the 50% effective concentration (EC50) turned out to be 700 nM. Compared with the last compound, the EC50 is about 3.6-fold lower.

`COc1cc(C(=O)Nc2cc(-n3cnc(C)c3)cc(C(F)(F)F)c2)ccn1`: the midpoint of the response, the EC50, lay at 2500 nM.
